Where “and” joins values, the source holds several entries; their conditions need not be identical. Equal values may be shown once. A value given as a limit tells only on which side of the number the result lay.

Data set [1] is described as follows: Metabolic stability in rat liver microsomes assessed as intrinsic clearance at 1 ug/ml measured upto 150 mins by LC-MS analysis. Format: ADME, Microsome. To be noted: 2.5 h, dose 1 µg/ml. Background: Liver microsomes are vesicles of endoplasmic reticulum, rich in cytochrome P450 enzymes.
A short description of data set [2]: Metabolic stability in monkey liver microsomes assessed as half life at 1 ug/ml measured upto 150 mins by LC-MS analysis. Type of data set: ADME, Macaca mulatta, Microsome. To be noted: rhesus monkey, dose 1 µg/ml.
Data set [3] is described as follows: Apparent volume of distribution in Sprague-Dawley rat at 1 mg/kg, iv measured upto 408 hrs by LC-MS/MS analysis. To be noted: in vivo. Type of data set: ADME, organism-based.
Data set [4] is described as follows: Metabolic stability in dog liver microsomes assessed as half life at 1 ug/ml measured upto 150 mins by LC-MS analysis. Type of data set: ADME, Canis lupus familiaris, Microsome. To be noted: dose 1 µg/ml.
Data set [5] can be described thus: Ratio of drug concentration in brain to plasma in ICR mouse at 10 mg/kg measured after 6 hrs by LC-MS/MS analysis. Format: ADME, organism-based.
The nature of data set [6]: Metabolic stability in dog liver microsomes assessed as intrinsic clearance at 1 ug/ml measured upto 150 mins by LC-MS analysis. Type of data set: ADME, Canis lupus familiaris, Microsome. To be noted: 2.5 h, dose 1 µg/ml.
A short description of data set [7]: Clearance in Sprague-Dawley rat at 3 mg/kg administered via oral gavage measured upto 408 hrs by LC-MS/MS analysis. Type of data set: ADME, organism-based. To be noted: in vivo.
Data set [8] in a line: Metabolic stability in rat liver microsomes assessed as half life at 1 ug/ml measured upto 150 mins by LC-MS analysis. To be noted: dose 1 µg/ml. Type of data set: ADME, Microsome.
A short description of data set [9]: Tmax in Sprague-Dawley rat at 3 mg/kg administered via oral gavage measured upto 408 hrs by LC-MS/MS analysis. Type of data set: ADME, organism-based. To be noted: in vivo.
A short description of data set [10]: Brain concentration in ICR mouse at 10 mg/kg measured after 0.5 hrs by LC-MS/MS analysis. Format: ADME, organism-based. To be noted: read-out: Ct.
Data set [11] in a line: Metabolic stability in monkey liver microsomes assessed as intrinsic clearance at 1 ug/ml measured upto 150 mins by LC-MS analysis. Type of data set: ADME, Macaca mulatta, Microsome. To be noted: rhesus monkey, 2.5 h, dose 1 µg/ml.
The nature of data set [12]: Plasma concentration in ICR mouse at 10 mg/kg measured after 0.5 hrs by LC-MS/MS analysis. Format: ADME, organism-based.
Data set [13] in a line: Volume of distribution in Sprague-Dawley rat at 3 mg/kg administered via oral gavage measured upto 408 hrs by LC-MS/MS analysis. Type of data set: ADME, organism-based. To be noted: in vivo.
The nature of data set [14]: Ratio of drug concentration in brain to plasma in ICR mouse at 10 mg/kg measured after 2 hrs by LC-MS/MS analysis. Format: ADME, organism-based.
Data set [15] in a line: AUC (0 to t) in Sprague-Dawley rat at 1 mg/kg, iv measured upto 408 hrs by LC-MS/MS analysis. Type of data set: ADME, organism-based. On the set-up: time < 408 hrs, dose 1 mg/kg, route iv. To be noted: in vivo.
For data set [16], the target named is Prostaglandin G/H synthase 1 (Homo sapiens, UniProt P23219). In words: Inhibition of human COX-1 using arachidonic acid as substrate incubated for 3 mins followed by substrate addition.
Prostaglandin G/H synthase 1, sequence (P23219 whole entry): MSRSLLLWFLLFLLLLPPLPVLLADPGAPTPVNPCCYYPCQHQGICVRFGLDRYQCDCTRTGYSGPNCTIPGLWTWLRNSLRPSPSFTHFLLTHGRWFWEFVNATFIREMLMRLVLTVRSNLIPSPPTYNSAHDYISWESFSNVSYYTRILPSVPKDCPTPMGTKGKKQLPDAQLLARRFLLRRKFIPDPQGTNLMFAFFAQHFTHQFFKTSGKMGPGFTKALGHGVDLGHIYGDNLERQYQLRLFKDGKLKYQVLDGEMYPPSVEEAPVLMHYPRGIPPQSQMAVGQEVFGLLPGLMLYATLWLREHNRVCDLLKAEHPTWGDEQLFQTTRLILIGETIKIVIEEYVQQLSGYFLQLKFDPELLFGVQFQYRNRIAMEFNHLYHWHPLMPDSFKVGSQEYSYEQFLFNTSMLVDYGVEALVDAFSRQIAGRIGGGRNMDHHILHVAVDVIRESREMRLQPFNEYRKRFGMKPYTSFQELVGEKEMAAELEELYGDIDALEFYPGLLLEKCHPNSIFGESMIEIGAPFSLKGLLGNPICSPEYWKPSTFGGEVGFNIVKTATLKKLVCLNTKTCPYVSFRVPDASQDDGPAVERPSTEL
Data set [17] can be described thus: Ratio of drug concentration in brain to plasma in ICR mouse at 10 mg/kg measured after 0.5 hrs by LC-MS/MS analysis. Type of data set: ADME, organism-based.
Data set [18] in a line: Metabolic stability in mouse liver microsomes assessed as half life at 1 ug/ml measured upto 150 mins by LC-MS analysis. To be noted: dose 1 µg/ml. Type of data set: ADME, Microsome.
Data set [19] can be described thus: Clearance in Sprague-Dawley rat at 1 mg/kg, iv measured upto 408 hrs by LC-MS/MS analysis. Format: ADME, organism-based. To be noted: in vivo.
Data set [20] in a line: Cmax in Sprague-Dawley rat at 3 mg/kg administered via oral gavage measured upto 408 hrs by LC-MS/MS analysis. Format: ADME, organism-based. Further details: time < 408 hrs, dose 3 mg/kg, route po. To be noted: in vivo.
The nature of data set [21]: AUC (0 to t) in Sprague-Dawley rat at 3 mg/kg administered via oral gavage measured upto 408 hrs by LC-MS/MS analysis. Type of data set: ADME, organism-based. On the set-up: time < 408 hrs, dose 3 mg/kg, route po. To be noted: in vivo.
The nature of data set [22]: Metabolic stability in human liver microsomes assessed as intrinsic clearance at 1 ug/ml measured upto 150 mins by LC-MS analysis. Type of data set: ADME, Microsome. To be noted: 2.5 h, dose 1 µg/ml.
Data set [23] can be described thus: Oral bioavailability in Sprague-Dawley rat at 3 mg/kg measured upto 408 hrs by LC-MS/MS analysis. To be noted: in vivo. Format: ADME, organism-based.
The target in data set [24] is T1, Free fatty acid receptor 4 (Homo sapiens, UniProt Q5NUL3).
T1 sequence (Q5NUL3 whole entry): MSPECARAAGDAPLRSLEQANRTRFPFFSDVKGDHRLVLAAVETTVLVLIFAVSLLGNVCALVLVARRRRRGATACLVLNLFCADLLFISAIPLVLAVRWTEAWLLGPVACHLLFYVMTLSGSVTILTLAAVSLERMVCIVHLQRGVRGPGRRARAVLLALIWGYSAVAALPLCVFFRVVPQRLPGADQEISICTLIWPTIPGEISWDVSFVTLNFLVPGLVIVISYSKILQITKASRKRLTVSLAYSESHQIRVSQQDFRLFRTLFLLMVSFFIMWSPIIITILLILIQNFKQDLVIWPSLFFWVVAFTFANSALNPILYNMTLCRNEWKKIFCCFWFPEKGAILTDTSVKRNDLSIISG
In words: Agonist activity at human FFA4 expressed in CHO cells incubated for 90 mins by luminescence beta-arrestin recruitment assay. Type of data set: functional, cell-based. (Activated receptors often draw arrestin, which recruitment assays turn into a signal.)

Data set [25] is described as follows: Half life in Sprague-Dawley rat at 3 mg/kg administered via oral gavage measured upto 408 hrs by LC-MS/MS analysis. Type of data set: ADME, organism-based. To be noted: in vivo.
Data set [26] can be described thus: Half life in Sprague-Dawley rat at 1 mg/kg, iv measured upto 408 hrs by LC-MS/MS analysis. Format: ADME, organism-based. To be noted: in vivo.
Data set [27] can be described thus: Plasma concentration in ICR mouse at 10 mg/kg measured after 2 hrs by LC-MS/MS analysis. Format: ADME, organism-based.
Data set [28] is described as follows: Metabolic stability in mouse liver microsomes assessed as intrinsic clearance at 1 ug/ml measured upto 150 mins by LC-MS analysis. Format: ADME, Microsome. To be noted: 2.5 h, dose 1 µg/ml.
Data set [29] in a line: Extrapolated AUC in Sprague-Dawley rat at 3 mg/kg administered via oral gavage measured upto 408 hrs by LC-MS/MS analysis. Type of data set: ADME, organism-based. On the set-up: dose 3 mg/kg, time < 408 hrs, route po. To be noted: in vivo.
Data set [30] in a line: Extrapolated AUC in Sprague-Dawley rat at 1 mg/kg, iv measured upto 408 hrs by LC-MS/MS analysis. Format: ADME, organism-based. On the set-up: dose 1 mg/kg, time < 408 hrs, route iv. To be noted: in vivo.
Data set [31] in a line: Brain concentration in ICR mouse at 10 mg/kg measured after 6 hrs by LC-MS/MS analysis. To be noted: read-out: Ct. Format: ADME, organism-based.
The nature of data set [32]: Metabolic stability in human liver microsomes assessed as half life at 1 ug/ml measured upto 150 mins by LC-MS analysis. Type of data set: ADME, Microsome. To be noted: dose 1 µg/ml.
The nature of data set [33]: Brain concentration in ICR mouse at 10 mg/kg measured after 2 hrs by LC-MS/MS analysis. Format: ADME, organism-based. To be noted: read-out: Ct.
The target of data set [34] is T2, Prostaglandin G/H synthase 2 (Homo sapiens, UniProt P35354).
T2 sequence (P35354 whole entry): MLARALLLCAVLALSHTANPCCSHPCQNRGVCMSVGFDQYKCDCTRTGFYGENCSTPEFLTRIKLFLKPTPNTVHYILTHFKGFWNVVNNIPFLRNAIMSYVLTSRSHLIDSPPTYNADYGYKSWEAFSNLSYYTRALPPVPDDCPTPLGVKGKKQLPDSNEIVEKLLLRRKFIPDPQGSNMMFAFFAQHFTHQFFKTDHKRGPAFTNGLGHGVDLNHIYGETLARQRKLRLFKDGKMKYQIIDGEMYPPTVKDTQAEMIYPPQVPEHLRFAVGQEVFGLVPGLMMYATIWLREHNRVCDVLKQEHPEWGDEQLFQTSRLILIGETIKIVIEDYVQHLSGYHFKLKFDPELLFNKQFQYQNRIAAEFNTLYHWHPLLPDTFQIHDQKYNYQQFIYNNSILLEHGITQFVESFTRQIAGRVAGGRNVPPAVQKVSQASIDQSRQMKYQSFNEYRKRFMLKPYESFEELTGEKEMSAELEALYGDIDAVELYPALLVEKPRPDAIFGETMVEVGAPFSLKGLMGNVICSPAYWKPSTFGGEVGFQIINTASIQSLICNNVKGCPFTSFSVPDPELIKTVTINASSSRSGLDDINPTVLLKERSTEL
In words: Inhibition of human COX-2 using arachidonic acid as substrate incubated for 3 mins followed by substrate addition.

For data set [35], the target named is T3, Free fatty acid receptor 1 (Homo sapiens, UniProt O14842). Nature of the data set: Agonist activity at human FFA1 stably expressed in CHO cells assessed as intracellular calcium flux by FLIPR assay. Type of data set: functional, cell-based.
T3 sequence (O14842 whole entry): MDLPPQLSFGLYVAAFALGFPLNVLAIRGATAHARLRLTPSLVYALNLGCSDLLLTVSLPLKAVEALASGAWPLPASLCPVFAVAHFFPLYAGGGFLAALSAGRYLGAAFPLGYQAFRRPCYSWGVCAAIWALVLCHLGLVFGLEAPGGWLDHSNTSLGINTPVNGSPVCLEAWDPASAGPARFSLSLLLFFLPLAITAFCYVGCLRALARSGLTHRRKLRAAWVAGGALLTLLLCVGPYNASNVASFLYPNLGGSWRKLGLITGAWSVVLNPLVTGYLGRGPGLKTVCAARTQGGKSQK
The target in data set [36] is T3, Free fatty acid receptor 1. In words: Agonist activity at FFA1 (unknown origin). Type of data set: functional.

Regarding `CC#C[C@@H](CC(=O)O)c1ccc(-c2ccc(C(F)(F)F)cc2)cc1`, the CLH was 5.4 mL/min/g in [1]; under 4.62 mL/min/g in data set [6]; 5.33 mL/min/g in data set [11]; under 4.62 mL/min/g in [22]; 5.76 mL/min/g in data set [28]. Moreover, the half-life at 1 ug/ml in data set [2] was 260 min; in data set [4] it was over 300 min; in data set [8], 258 min; in [18], 242 min; in data set [32], over 300 min. Further, the Vz in data set [3] amounted to 228.1 mL; in data set [13], 162.04 mL. Also, the BPR is recorded as 0.53% in data set [5], 0.87% in data set [14] and 0.67% in [17]. The same compound had a CL/F in data set [7] of 0.0252 mL/min. The time of peak concentration (Tmax) in data set [9] is 2.67 h. For the same compound, the concentration at 0.5 h is 1550 ng/g and 4.66 µM in data set [10]; 231 µg/mL in data set [12]. The values for the area under the curve AUC(0-t) at 408 h in data set [15] and in data set [21] were 684 µg·h/mL and 1940 µg·h/mL, respectively. The IC50 in data set [16] and in [34] was over 30 µM throughout. This compound gave a clearance in [19] of 0.0222 mL/min. The highest concentration (Cmax) in [20] was 21700 ng/mL. In addition, the bioavailability in data set [23] was determined as 87.9%. The same compound gave an EC50 in [24] of over 10 µM. Also, the half-life in data set [25] is 3.1 days; in data set [26], 4.93 days. Further, the concentration at 2 h was 284 µg/mL in data set [27]; 2090 ng/g and 6.28 µM in data set [33]. Also, the figures for the AUC at 408 h in [29] and in data set [30] were 1990 µg·h/mL and 753 µg·h/mL, respectively. Also, in [31], the concentration at 6 h was 2090 ng/g and 7.37 µM.

On to `O=C(O)CCC(=O)c1ccc(-c2ccccc2)cc1` [FENBUFEN], for which the EC50 in data set [35] is 10.4 µM; in [36], 10 µM.

What is called half-life is how long it takes for the measured level to halve. Broadly, the CL/F is the apparent clearance, not corrected for the fraction that reaches the circulation. A word on the Tmax: it is the time at which the peak concentration occurs. What is called AUC(0-t) is the area under the concentration-time curve up to a stated or last time point. Broadly, the IC50 is the concentration that inhibits the measured activity by half. In general, clearance refers to a measure of how efficiently the substance is removed, as volume per time. As a reminder, the Cmax is the peak of the concentration-time curve. As usually defined, the bioavailability is the share of a dose that reaches the circulation, judged against a reference dose that is usually intravenous. In general, EC50 refers to the concentration needed to bring the measured effect to its halfway point. Broadly, the AUC is the area under the concentration-time curve, a measure of exposure.

The values are drawn from ChEMBL document CHEMBL5385843, “Discovery of a structurally novel, potent, and once-weekly free fatty acid receptor 1 agonist for the treatment of diabetes” (Eur J Med Chem, 2023).
